These results are taken from ChEMBL document CHEMBL2331402, “Salicylaldoxime derivatives as new leads for the development of carbonic anhydrase inhibitors” (Bioorg Med Chem, 2013).

One assay addresses Carbonic anhydrase 1 (Homo sapiens, UniProt P00915). Briefly: Inhibition of human recombinant carbonic anhydrase 1 preincubated for 15 mins by CO2 hydration stopped-flow assay.
In another assay the target is Carbonic anhydrase 12 (Homo sapiens, UniProt O43570). Kind of assay: Inhibition of human recombinant carbonic anhydrase 12 preincubated for 15 mins by CO2 hydration stopped-flow assay.
Sequence of Carbonic anhydrase 12 (O43570 whole entry): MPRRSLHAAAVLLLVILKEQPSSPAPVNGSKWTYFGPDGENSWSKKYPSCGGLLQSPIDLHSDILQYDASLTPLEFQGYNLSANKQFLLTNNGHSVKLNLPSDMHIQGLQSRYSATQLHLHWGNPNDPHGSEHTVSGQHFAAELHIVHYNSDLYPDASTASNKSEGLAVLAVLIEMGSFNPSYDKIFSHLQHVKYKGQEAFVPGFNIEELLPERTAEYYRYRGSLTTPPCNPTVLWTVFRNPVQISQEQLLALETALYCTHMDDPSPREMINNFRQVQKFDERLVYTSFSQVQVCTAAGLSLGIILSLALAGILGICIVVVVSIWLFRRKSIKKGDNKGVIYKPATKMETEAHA
The target of the next assay is Carbonic anhydrase 2 (Homo sapiens, UniProt P00918). Briefly: Inhibition of human recombinant carbonic anhydrase 2 preincubated for 15 mins by CO2 hydration stopped-flow assay.
In a further assay the target is Carbonic anhydrase 9 (Homo sapiens, UniProt Q16790). Kind of assay: Inhibition of human recombinant carbonic anhydrase 9 preincubated for 15 mins by CO2 hydration stopped-flow assay.

Sequence of Carbonic anhydrase 1 (P00915 whole entry): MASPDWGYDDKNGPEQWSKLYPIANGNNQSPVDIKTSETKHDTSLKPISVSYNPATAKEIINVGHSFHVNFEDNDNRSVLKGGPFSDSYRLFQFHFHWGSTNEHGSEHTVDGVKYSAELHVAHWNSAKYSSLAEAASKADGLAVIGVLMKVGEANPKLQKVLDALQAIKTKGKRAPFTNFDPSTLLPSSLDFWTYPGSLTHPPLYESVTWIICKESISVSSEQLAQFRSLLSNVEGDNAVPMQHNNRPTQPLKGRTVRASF

Take `O/N=C/c1c(O)ccc(-c2ccc(O)cc2)c1Cl`: the inhibitory constant (Ki) at Carbonic anhydrase 1 was determined as 3.98 µM; on Carbonic anhydrase 12, 4.31 µM; at Carbonic anhydrase 2, 2.3 µM.

Regarding `O/N=C/c1c(O)ccc(-c2ccc(O)c(F)c2)c1Cl`, the Ki at Carbonic anhydrase 1 was determined as 7.27 µM; at Carbonic anhydrase 9, 7.04 µM; at Carbonic anhydrase 12, 5.53 µM; on Carbonic anhydrase 2 it was 3.74 µM.

Take `Oc1cc(F)cc(F)c1`: the inhibition constant (Ki) on Carbonic anhydrase 9 was determined as 0.944 µM; at Carbonic anhydrase 2 it was 340 µM.

As for `N#Cc1c(-c2ccc(O)cc2)ccc(/C=N/O)c1O`, the Ki at Carbonic anhydrase 1 is 7.65 µM; on Carbonic anhydrase 9, 7.72 µM; at Carbonic anhydrase 12, 3.14 µM; on Carbonic anhydrase 2, 5.87 µM.

Turning to `Cc1c(-c2ccc(O)cc2)ccc(/C=N/O)c1O`, the Ki on Carbonic anhydrase 1 was 7.88 µM; at Carbonic anhydrase 9, 6.43 µM; at Carbonic anhydrase 12, 7.45 µM; at Carbonic anhydrase 2, 6.35 µM.

In the case of `COc1ccc(-c2ccc(O)c(/C=N/O)c2)cc1F`, the Ki amounted to 6.93 µM on Carbonic anhydrase 1, 10.2 µM at Carbonic anhydrase 9, 5.94 µM on Carbonic anhydrase 12 and 3.66 µM at Carbonic anhydrase 2.

Consider `O/N=C/c1cc(-c2ccc(O)c(F)c2)ccc1O`, for which the Ki at Carbonic anhydrase 1 amounted to 9.13 µM; at Carbonic anhydrase 9, 6.99 µM; on Carbonic anhydrase 12, 4.24 µM; on Carbonic anhydrase 2, 4.13 µM.

For `C/C(=N\O)c1ccc(-c2ccc(O)cc2)c(Cl)c1O`, the Ki turned out to be 6.9 µM at Carbonic anhydrase 1, 10.2 µM on Carbonic anhydrase 9, 4.53 µM at Carbonic anhydrase 12 and 3.32 µM at Carbonic anhydrase 2.

`C/C(=N\O)c1ccc(-c2ccc(O)c(F)c2)c(Cl)c1O`: the Ki on Carbonic anhydrase 1 was found to be 7.57 µM; at Carbonic anhydrase 9, 7.08 µM; at Carbonic anhydrase 12, 4.77 µM; at Carbonic anhydrase 2, 4.96 µM.

As usually defined, the Ki is the dissociation constant of the complex between target and ligand, obtained from inhibition or displacement.
